Measured values taken from the NIST ThermoML archive (doi:10.1016/j.jct.2010.03.011).
± gives the expanded uncertainty stated by the source.

Columns and labels:
[1] = xn = mol fraction of the nth substance listed; details: 298.2 K, 101 kPa, Liquid, Vibrating tube method
[2] = refractive index (Na D-line) (dimensionless); xn = mol fraction of the nth substance listed; details: 298.2 K, 101 kPa, Liquid, Standard Abbe refractometry
[3] = relative permittivity at various frequencies (dimensionless); xn = mol fraction of the nth substance listed; details: 298.2 K, 101.33 kPa, Liquid, Frequency=0.1 MHz, Parallel plate capacitor
[4] = 298.2 K; 101 kPa; Liquid; Vibrating tube method
[5] = refractive index (Na D-line) (dimensionless); details: 298.2 K; 101.33 kPa; Liquid; Standard Abbe refractometry
[6] = relative permittivity at various frequencies (dimensionless); details: 298.2 K; 101.33 kPa; Liquid; Frequency=0.1 MHz

CCCCC(CC)CO (stereo unspecified) [2-ethyl-1-hexanol] + OCCCCO
Details | mass density, [1] [kg/m3] | refractive index, [2] | relative permittivity, [3]
x2 = 0.099 | 840.72 ± 0.73 | 1.4299 ± 0.0005 | 8.795 ± 0.031
x2 = 0.25 | 858.3 ± 0.76 | 1.4313 ± 0.0005 | 11.008 ± 0.034
x2 = 0.4 | 881.5 ± 0.8 | 1.4329 ± 0.0005 | 13.706 ± 0.04
x2 = 0.5 | 897.59 ± 0.83 | 1.4343 ± 0.0005 | 15.945 ± 0.048
x2 = 0.6 | 916.55 ± 0.86 | 1.4358 ± 0.0005 | 18.45 ± 0.05
x2 = 0.649 | 926.55 ± 0.89 | 1.4368 ± 0.0005 | 19.741 ± 0.059
x2 = 0.749 | 948.41 ± 0.93 | 1.439 ± 0.0005 | 22.751 ± 0.063
x2 = 0.9 | 984.92 ± 1 | 1.4424 ± 0.0005 | 27.546 ± 0.07

CC(O)C(C)O (stereo unspecified) [2,3-butanediol] + CCCCC(CC)CO
x1 = 1
Details | mass density [kg/m3] | refractive index | relative permittivity
[1] | 994.31 ± 0.86 | – | –
[2] | – | 1.4348 ± 0.0005 | –
[3] | – | – | 21.282 ± 0.01

OCCCCO [1,4-butanediol] + C1COCCO1
Details | refractive index, [2] | relative permittivity, [3]
x1 = 0.029 | 1.4207 ± 0.0005 | 2.525 ± 0.026
x1 = 0.098 | 1.422 ± 0.001 | 3.353 ± 0.03
x1 = 0.2 | 1.4243 ± 0.0005 | 4.916 ± 0.035
x1 = 0.293 | 1.4263 ± 0.0005 | 6.656 ± 0.04
x1 = 0.4 | 1.4288 ± 0.0005 | 8.798 ± 0.047
x1 = 0.491 | 1.4311 ± 0.0005 | 11.193 ± 0.058
x1 = 0.6 | 1.434 ± 0.001 | 14.491 ± 0.067
x1 = 0.693 | 1.4363 ± 0.0005 | 17.889 ± 0.075
x1 = 0.8 | 1.4392 ± 0.0005 | 21.914 ± 0.084
x1 = 0.9 | 1.4418 ± 0.0005 | 26.541 ± 0.093

CCCCC(CC)CO (stereo unspecified) [2-ethyl-1-hexanol]
Details | mass density [kg/m3] | refractive index | relative permittivity
[4] | 830.62 ± 0.68 | – | –
[5] | – | 1.4293 ± 0.0005 | –
[6] | – | – | 7.611 ± 0.01

CC(O)CCO (stereo unspecified) [1,3-butanediol] + CCCCC(CC)CO
Details | mass density, [1] [kg/m3] | refractive index, [2] | relative permittivity, [3]
x1 = 0.1 | 839.88 ± 0.72 | 1.4295 ± 0.0005 | 8.625 ± 0.028
x1 = 0.25 | 855.62 ± 0.75 | 1.4301 ± 0.0005 | 10.605 ± 0.031
x1 = 0.401 | 875.88 ± 0.78 | 1.431 ± 0.001 | 13.065 ± 0.037
x1 = 0.501 | 891.81 ± 0.82 | 1.4318 ± 0.0005 | 15.056 ± 0.043
x1 = 0.6 | 909.96 ± 0.85 | 1.4329 ± 0.0005 | 17.255 ± 0.048
x1 = 0.649 | 919.85 ± 0.87 | 1.4334 ± 0.0005 | 18.524 ± 0.051
x1 = 0.75 | 939.91 ± 0.91 | 1.4346 ± 0.0005 | 21.039 ± 0.055
x1 = 0.9 | 974.72 ± 0.97 | 1.4367 ± 0.0005 | 25.228 ± 0.062
x1 = 1 | 1001.22 ± 0.87 | 1.4383 ± 0.0005 | 28.692 ± 0.01

CCCCC(CC)CO (stereo unspecified) [2-ethyl-1-hexanol] + CC(O)C(C)O
Details | mass density, [1] [kg/m3] | refractive index, [2] | relative permittivity, [3]
x2 = 0 | 830.62 ± 0.68 | 1.4293 ± 0.0005 | 7.611 ± 0.01
x2 = 0.1 | 837.79 ± 0.72 | 1.4294 ± 0.0005 | 8.197 ± 0.018
x2 = 0.25 | 854.38 ± 0.75 | 1.4297 ± 0.0005 | 9.478 ± 0.022
x2 = 0.401 | 874.23 ± 0.78 | 1.4301 ± 0.0005 | 11.075 ± 0.025
x2 = 0.499 | 890.64 ± 0.81 | 1.4308 ± 0.0005 | 12.36 ± 0.03
x2 = 0.55 | 897.94 ± 0.83 | 1.4311 ± 0.0005 | 13.125 ± 0.032
x2 = 0.65 | 916.49 ± 0.86 | 1.4318 ± 0.0005 | 14.659 ± 0.034
x2 = 0.75 | 934.5 ± 0.89 | 1.4324 ± 0.0005 | 16.407 ± 0.038
x2 = 0.898 | 966.52 ± 0.96 | 1.4337 ± 0.0005 | 19.166 ± 0.04

OCCCCO [1,4-butanediol]
Details | mass density [kg/m3] | refractive index | relative permittivity
[4] | 1013.45 ± 0.9 | – | –
[5] | – | 1.4447 ± 0.0005 | –
[6] | – | – | 31.539 ± 0.01

CC(O)CCO (stereo unspecified) [1,3-butanediol]
Details | mass density [kg/m3] | refractive index | relative permittivity
[4] | 1001.22 ± 0.87 | – | –
[5] | – | 1.4383 ± 0.0005 | –
[6] | – | – | 28.692 ± 0.01

CC(O)C(C)O (stereo unspecified) [2,3-butanediol] + C1COCCO1
Details | refractive index, [2] | relative permittivity, [3]
x1 = 0.03 | 1.4205 ± 0.0005 | 2.386 ± 0.016
x1 = 0.096 | 1.4212 ± 0.0005 | 2.798 ± 0.018
x1 = 0.19 | 1.4223 ± 0.0005 | 3.592 ± 0.023
x1 = 0.29 | 1.4235 ± 0.0005 | 4.778 ± 0.027
x1 = 0.38 | 1.4249 ± 0.0005 | 5.985 ± 0.033
x1 = 0.488 | 1.4264 ± 0.0005 | 7.881 ± 0.04
x1 = 0.6 | 1.4281 ± 0.0005 | 10.205 ± 0.045
x1 = 0.69 | 1.4294 ± 0.0005 | 12.277 ± 0.054
x1 = 0.82 | 1.4316 ± 0.0005 | 16.001 ± 0.059
x1 = 0.9 | 1.433 ± 0.001 | 18.397 ± 0.061

CC(O)C(C)O (stereo unspecified) [2,3-butanediol]
Details | mass density [kg/m3] | refractive index | relative permittivity
[4] | 994.31 ± 0.86 | – | –
[5] | – | 1.4348 ± 0.0005 | –
[6] | – | – | 21.282 ± 0.01

OCCCCO [1,4-butanediol] + CCCCC(CC)CO
x1 = 1
Details | mass density [kg/m3] | refractive index | relative permittivity
[1] | 1013.45 ± 0.9 | – | –
[2] | – | 1.4447 ± 0.0005 | –
[3] | – | – | 31.539 ± 0.01

CC(O)CCO (stereo unspecified) [1,3-butanediol] + C1COCCO1
Details | refractive index, [2] | relative permittivity, [3]
x1 = 0.029 | 1.4206 ± 0.0005 | 2.488 ± 0.024
x1 = 0.098 | 1.4217 ± 0.0005 | 3.231 ± 0.027
x1 = 0.2 | 1.4233 ± 0.0005 | 4.644 ± 0.033
x1 = 0.293 | 1.4251 ± 0.0005 | 6.316 ± 0.039
x1 = 0.4 | 1.4265 ± 0.0005 | 8.425 ± 0.043
x1 = 0.491 | 1.4282 ± 0.0005 | 10.465 ± 0.052
x1 = 0.6 | 1.4301 ± 0.0005 | 13.528 ± 0.063
x1 = 0.693 | 1.4319 ± 0.0005 | 16.725 ± 0.071
x1 = 0.8 | 1.4343 ± 0.0005 | 20.583 ± 0.074
x1 = 0.9 | 1.4362 ± 0.0005 | 24.335 ± 0.076
